Q: With `CCOc1ccccc1C(N)=O` as the compound, how does the solubility (mole fraction) (in 1,4-dioxane, 288.15 K) read?
A: The solubility (mole fraction) was 0.0116.

Q: What about the solubility (mole fraction) (in 1,4-dioxane, 293.15 K) of the same compound?
A: The solubility (mole fraction) was 0.0144.

Q: What about the solubility (mole fraction) (in 1,4-dioxane, 298.15 K) of the same compound?
A: The solubility (mole fraction) was 0.0175.

Q: What about the solubility (mole fraction) (in 1,4-dioxane, 303.15 K) of the same compound?
A: The solubility (mole fraction) was 0.0221.

Q: What about the solubility (mole fraction) (in 1,4-dioxane, 308.15 K) of the same compound?
A: The solubility (mole fraction) was 0.0272.

Q: And the solubility (mole fraction) (in 1,4-dioxane, 313.15 K)?
A: The solubility (mole fraction) was 0.0341.

Q: What about the solubility (mole fraction) (in 1,4-dioxane, 318.15 K) of the same compound?
A: The solubility (mole fraction) was 0.0427.

Q: What about the solubility (mole fraction) (in 1,4-dioxane, 323.15 K) of the same compound?
A: Its solubility (mole fraction) is 0.0527.

Q: And the solubility (mole fraction) (in 1,4-dioxane, 328.15 K)?
A: The solubility (mole fraction) was 0.0653.

Q: What about the solubility (mole fraction) (in 2-butanone, 288.15 K) of the same compound?
A: Its solubility (mole fraction) is 0.0124.

Q: What about the solubility (mole fraction) (in 2-butanone, 293.15 K) of the same compound?
A: Its solubility (mole fraction) is 0.015.

Q: What about the solubility (mole fraction) (in 2-butanone, 298.15 K) of the same compound?
A: The solubility (mole fraction) was 0.0179.

Q: What about the solubility (mole fraction) (in 2-butanone, 303.15 K) of the same compound?
A: Its solubility (mole fraction) is 0.0218.

Q: And the solubility (mole fraction) (in 2-butanone, 308.15 K)?
A: Its solubility (mole fraction) is 0.0268.

Q: What about the solubility (mole fraction) (in 2-butanone, 313.15 K) of the same compound?
A: The solubility (mole fraction) was 0.0335.

Q: And the solubility (mole fraction) (in 2-butanone, 318.15 K)?
A: The solubility (mole fraction) was 0.0413.

Q: What about the solubility (mole fraction) (in 2-butanone, 323.15 K) of the same compound?
A: Its solubility (mole fraction) is 0.0501.

Q: What about the solubility (mole fraction) (in 2-butanone, 328.15 K) of the same compound?
A: The solubility (mole fraction) was 0.0609.

Q: What about the solubility (mole fraction) (in DMF, 288.15 K) of the same compound?
A: Its solubility (mole fraction) is 0.0485.

Q: What about the solubility (mole fraction) (in DMF, 293.15 K) of the same compound?
A: Its solubility (mole fraction) is 0.0566.

Q: What about the solubility (mole fraction) (in DMF, 298.15 K) of the same compound?
A: The solubility (mole fraction) was 0.0653.

Q: What about the solubility (mole fraction) (in DMF, 303.15 K) of the same compound?
A: The solubility (mole fraction) was 0.0754.

Q: What about the solubility (mole fraction) (in DMF, 308.15 K) of the same compound?
A: The solubility (mole fraction) was 0.0875.

Q: And the solubility (mole fraction) (in DMF, 313.15 K)?
A: Its solubility (mole fraction) is 0.101.

Q: And the solubility (mole fraction) (in DMF, 318.15 K)?
A: The solubility (mole fraction) was 0.117.

Q: And the solubility (mole fraction) (in DMF, 323.15 K)?
A: The solubility (mole fraction) was 0.133.

Q: What about the solubility (mole fraction) (in DMF, 328.15 K) of the same compound?
A: Its solubility (mole fraction) is 0.151.

Q: What about the solubility (mole fraction) (in acetone, 288.15 K) of the same compound?
A: Its solubility (mole fraction) is 0.0124.

Q: And the solubility (mole fraction) (in acetone, 293.15 K)?
A: Its solubility (mole fraction) is 0.0153.

Q: And the solubility (mole fraction) (in acetone, 298.15 K)?
A: The solubility (mole fraction) was 0.0184.

Q: And the solubility (mole fraction) (in acetone, 303.15 K)?
A: Its solubility (mole fraction) is 0.0226.

Q: What about the solubility (mole fraction) (in acetone, 308.15 K) of the same compound?
A: The solubility (mole fraction) was 0.0277.

Q: What about the solubility (mole fraction) (in acetone, 313.15 K) of the same compound?
A: The solubility (mole fraction) was 0.0344.

Q: What about the solubility (mole fraction) (in acetone, 318.15 K) of the same compound?
A: Its solubility (mole fraction) is 0.0424.

Q: What about the solubility (mole fraction) (in acetone, 323.15 K) of the same compound?
A: The solubility (mole fraction) was 0.0507.

Q: What about the solubility (mole fraction) (in acetone, 328.15 K) of the same compound?
A: Its solubility (mole fraction) is 0.0611.

Q: And the solubility (mole fraction) (in ethyl formate, 288.15 K)?
A: Its solubility (mole fraction) is 0.00842.

Q: And the solubility (mole fraction) (in ethyl formate, 293.15 K)?
A: Its solubility (mole fraction) is 0.0103.

Q: And the solubility (mole fraction) (in ethyl formate, 298.15 K)?
A: The solubility (mole fraction) was 0.0122.

Q: And the solubility (mole fraction) (in ethyl formate, 303.15 K)?
A: The solubility (mole fraction) was 0.0151.

Q: And the solubility (mole fraction) (in ethyl formate, 308.15 K)?
A: The solubility (mole fraction) was 0.0188.

Q: What about the solubility (mole fraction) (in ethyl formate, 313.15 K) of the same compound?
A: The solubility (mole fraction) was 0.0238.

Q: What about the solubility (mole fraction) (in ethyl formate, 318.15 K) of the same compound?
A: Its solubility (mole fraction) is 0.0293.

Q: And the solubility (mole fraction) (in ethyl formate, 323.15 K)?
A: Its solubility (mole fraction) is 0.0354.

Q: What about the solubility (mole fraction) (in ethyl formate, 328.15 K) of the same compound?
A: The solubility (mole fraction) was 0.0429.

Q: What about the solubility (mole fraction) (in isopropanol, 288.15 K) of the same compound?
A: Its solubility (mole fraction) is 0.00616.

Q: And the solubility (mole fraction) (in isopropanol, 293.15 K)?
A: Its solubility (mole fraction) is 0.00748.

Q: What about the solubility (mole fraction) (in isopropanol, 298.15 K) of the same compound?
A: The solubility (mole fraction) was 0.00916.

Q: And the solubility (mole fraction) (in isopropanol, 303.15 K)?
A: The solubility (mole fraction) was 0.0122.

Q: And the solubility (mole fraction) (in isopropanol, 308.15 K)?
A: Its solubility (mole fraction) is 0.0157.

Q: And the solubility (mole fraction) (in isopropanol, 313.15 K)?
A: Its solubility (mole fraction) is 0.0205.

Q: What about the solubility (mole fraction) (in isopropanol, 318.15 K) of the same compound?
A: The solubility (mole fraction) was 0.0265.

Q: And the solubility (mole fraction) (in isopropanol, 323.15 K)?
A: The solubility (mole fraction) was 0.0339.

Q: What about the solubility (mole fraction) (in isopropanol, 328.15 K) of the same compound?
A: Its solubility (mole fraction) is 0.0423.

Q: What about the solubility (mole fraction) (in methyl acetate, 288.15 K) of the same compound?
A: The solubility (mole fraction) was 0.00747.

Q: And the solubility (mole fraction) (in methyl acetate, 293.15 K)?
A: Its solubility (mole fraction) is 0.00924.

Q: What about the solubility (mole fraction) (in methyl acetate, 298.15 K) of the same compound?
A: The solubility (mole fraction) was 0.0114.

Q: What about the solubility (mole fraction) (in methyl acetate, 303.15 K) of the same compound?
A: The solubility (mole fraction) was 0.0142.

Q: And the solubility (mole fraction) (in methyl acetate, 308.15 K)?
A: The solubility (mole fraction) was 0.0182.

Q: What about the solubility (mole fraction) (in methyl acetate, 313.15 K) of the same compound?
A: Its solubility (mole fraction) is 0.023.

Q: And the solubility (mole fraction) (in methyl acetate, 318.15 K)?
A: Its solubility (mole fraction) is 0.0285.

Q: And the solubility (mole fraction) (in methyl acetate, 323.15 K)?
A: Its solubility (mole fraction) is 0.0349.

Q: And the solubility (mole fraction) (in methyl acetate, 328.15 K)?
A: Its solubility (mole fraction) is 0.0428.

Q: And the solubility (mole fraction) (in n-butanol, 288.15 K)?
A: Its solubility (mole fraction) is 0.00781.

Q: What about the solubility (mole fraction) (in n-butanol, 293.15 K) of the same compound?
A: Its solubility (mole fraction) is 0.00989.

Q: What about the solubility (mole fraction) (in n-butanol, 298.15 K) of the same compound?
A: Its solubility (mole fraction) is 0.0122.

Q: What about the solubility (mole fraction) (in n-butanol, 303.15 K) of the same compound?
A: The solubility (mole fraction) was 0.0158.

Q: What about the solubility (mole fraction) (in n-butanol, 308.15 K) of the same compound?
A: The solubility (mole fraction) was 0.0199.

Q: What about the solubility (mole fraction) (in n-butanol, 313.15 K) of the same compound?
A: Its solubility (mole fraction) is 0.0251.

Q: And the solubility (mole fraction) (in n-butanol, 318.15 K)?
A: Its solubility (mole fraction) is 0.0322.

Q: What about the solubility (mole fraction) (in n-butanol, 323.15 K) of the same compound?
A: Its solubility (mole fraction) is 0.0402.

Q: And the solubility (mole fraction) (in n-butanol, 328.15 K)?
A: The solubility (mole fraction) was 0.0498.

Q: What about the solubility (mole fraction) (in n-butyl acetate, 288.15 K) of the same compound?
A: The solubility (mole fraction) was 0.00505.

Q: And the solubility (mole fraction) (in n-butyl acetate, 293.15 K)?
A: The solubility (mole fraction) was 0.00603.

Q: And the solubility (mole fraction) (in n-butyl acetate, 298.15 K)?
A: Its solubility (mole fraction) is 0.00705.

Q: What about the solubility (mole fraction) (in n-butyl acetate, 303.15 K) of the same compound?
A: Its solubility (mole fraction) is 0.0089.

Q: What about the solubility (mole fraction) (in n-butyl acetate, 308.15 K) of the same compound?
A: Its solubility (mole fraction) is 0.011.

Q: What about the solubility (mole fraction) (in n-butyl acetate, 313.15 K) of the same compound?
A: The solubility (mole fraction) was 0.0134.

Q: What about the solubility (mole fraction) (in n-butyl acetate, 318.15 K) of the same compound?
A: The solubility (mole fraction) was 0.0165.

Q: And the solubility (mole fraction) (in n-butyl acetate, 323.15 K)?
A: The solubility (mole fraction) was 0.0201.

Q: And the solubility (mole fraction) (in n-butyl acetate, 328.15 K)?
A: Its solubility (mole fraction) is 0.0245.

Q: And the solubility (mole fraction) (in n-pentanol, 288.15 K)?
A: Its solubility (mole fraction) is 0.00858.

Q: What about the solubility (mole fraction) (in n-pentanol, 293.15 K) of the same compound?
A: Its solubility (mole fraction) is 0.0106.

Q: What about the solubility (mole fraction) (in n-pentanol, 298.15 K) of the same compound?
A: The solubility (mole fraction) was 0.0131.

Q: And the solubility (mole fraction) (in n-pentanol, 303.15 K)?
A: Its solubility (mole fraction) is 0.0165.

Q: What about the solubility (mole fraction) (in n-pentanol, 308.15 K) of the same compound?
A: Its solubility (mole fraction) is 0.0207.

Q: And the solubility (mole fraction) (in n-pentanol, 313.15 K)?
A: The solubility (mole fraction) was 0.026.

Q: And the solubility (mole fraction) (in n-pentanol, 318.15 K)?
A: The solubility (mole fraction) was 0.0329.

Q: And the solubility (mole fraction) (in n-pentanol, 323.15 K)?
A: Its solubility (mole fraction) is 0.0406.

Q: And the solubility (mole fraction) (in n-pentanol, 328.15 K)?
A: The solubility (mole fraction) was 0.0504.

Q: And the solubility (mole fraction) (in n-propyl acetate, 288.15 K)?
A: Its solubility (mole fraction) is 0.00566.

Q: And the solubility (mole fraction) (in n-propyl acetate, 293.15 K)?
A: Its solubility (mole fraction) is 0.0069.

Q: What about the solubility (mole fraction) (in n-propyl acetate, 298.15 K) of the same compound?
A: Its solubility (mole fraction) is 0.0082.

Q: What about the solubility (mole fraction) (in n-propyl acetate, 303.15 K) of the same compound?
A: Its solubility (mole fraction) is 0.0101.

Q: What about the solubility (mole fraction) (in n-propyl acetate, 308.15 K) of the same compound?
A: Its solubility (mole fraction) is 0.0122.

Q: And the solubility (mole fraction) (in n-propyl acetate, 313.15 K)?
A: Its solubility (mole fraction) is 0.015.

Q: What about the solubility (mole fraction) (in n-propyl acetate, 318.15 K) of the same compound?
A: Its solubility (mole fraction) is 0.0185.

Q: And the solubility (mole fraction) (in n-propyl acetate, 323.15 K)?
A: The solubility (mole fraction) was 0.0227.

Q: What about the solubility (mole fraction) (in n-propyl acetate, 328.15 K) of the same compound?
A: The solubility (mole fraction) was 0.0271.

Q: What about the solubility (mole fraction) (in sec-butanol, 288.15 K) of the same compound?
A: The solubility (mole fraction) was 0.00735.

Q: What about the solubility (mole fraction) (in sec-butanol, 293.15 K) of the same compound?
A: The solubility (mole fraction) was 0.00924.

Q: What about the solubility (mole fraction) (in sec-butanol, 298.15 K) of the same compound?
A: Its solubility (mole fraction) is 0.0117.

Q: What about the solubility (mole fraction) (in sec-butanol, 303.15 K) of the same compound?
A: The solubility (mole fraction) was 0.0153.

Q: And the solubility (mole fraction) (in sec-butanol, 308.15 K)?
A: The solubility (mole fraction) was 0.0198.

Q: And the solubility (mole fraction) (in sec-butanol, 313.15 K)?
A: Its solubility (mole fraction) is 0.0256.

Q: And the solubility (mole fraction) (in sec-butanol, 318.15 K)?
A: The solubility (mole fraction) was 0.0326.

Q: And the solubility (mole fraction) (in sec-butanol, 323.15 K)?
A: Its solubility (mole fraction) is 0.0411.

Q: What about the solubility (mole fraction) (in sec-butanol, 328.15 K) of the same compound?
A: The solubility (mole fraction) was 0.0518.
